Measurements as given in ChEMBL document CHEMBL1221282, “The action of bromoconduritol on ER glucosidase II” (Bioorg Med Chem Lett, 2010).

Tests used:
[1] = Inhibition of rat liver glucosidase 2 assessed as inhibition of conversion of G1M9 to M9
[2] = Inhibition of rat liver glucosidase 2 assessed as inhibition of conversion of G2M9 to G1M9
[3] = species: Rattus norvegicus; assay: Inhibition of rat liver glucosidase 2 assessed as inhibition of consumption at 100 uM after 1 hr
[4] = species: Rattus norvegicus; assay: Inhibition of rat liver glucosidase 2 assessed as inhibition of consumption at 100 uM after 24 hrs
[5] = species: Rattus norvegicus; assay: Inhibition of rat liver glucosidase 2 assessed as inhibition of consumption at 100 uM after 20 mins

Row | SMILES | IC50 [1] [µM] | IC50 [2] [µM] | inhibition [3] [%] | inhibition [4] [%] | inhibition [5] [%]
1 | O[C@H]1[C@H](O)[C@@H](O)CN2CC[C@H](O)[C@H]12 [CASTANOSPERMINE] | 1.1 | 1.3 | – | – | –
2 | O[C@H]1[C@H](O)C=CC(Br)[C@@H]1O (some centres undefined) [BROMOCONDURITOL] | 41 | 262 | 20 | < 10 | 36
3 | OC[C@H]1NC[C@H](O)[C@@H](O)[C@@H]1O [DUVOGLUSTAT] | 11.2 | 8.2 | – | – | –
